Experimental data reported in patent US12351565B2, “Aromatic compound and preparation method therefor and use thereof” (SHANGHAI JIANHE PHARMACEUTICAL & TECHNOLOGY CO. LTD., priority 2018, dated 2025).
Where a name gives a salt, the structure may show the parent alone. Read-outs that look alike come from different tables or passages of the source.

How the values were obtained:
C57 mice [1] = test: Forced swimming experiment, intraperitoneal administration to mice; format: in vivo; conditions: Mus musculus, ip
Experimental: The forced-swimming test is currently the most widely used classic method to evaluate the antidepressant effects of compounds in rodents. […] The time in immobile state of experimental animal is observed and recorded, which can be used to evaluate the effect of antidepressant compounds.
1 h and 24 h after a single intraperitoneal administration of 10 mg/kg, forced swimming tests were respectively carried out to investigate the effects of different compounds on depression-like behaviors of C57 mice.
(§1) Experimental animals were 6-week aged C57 mice, male, and C57 mice were purchased from Shanghai SLAC Laboratory Animal Co., Ltd., with a body weight of 20.45±0.19 g. Before the experiment, they arrived at the Animal Feeding Center of Shanghai Institute of Materia Medica, Chinese Academy of Sciences (Animal Production License: SCXK9[Shanghai]2004-0002, usage license: SYXK[Shanghai]2003-0029), and adapted for 3 days or more in animal facilities. They were bred at 6 animals/cage. The breeding environment was room temperature 23±0.2° C., with 12/12 hours alternation of day and night. Before the behavioral test, the animals should be moved to the behavioral test operation room 2 hours in advance to adapt to the environment and reduce their tension.
Preparation of the test product: each test compound was accurately weighed and dissolved in 0.9% NaCl solution, mixed thoroughly, and prepared as a 1 mg/ml solution, set aside.
(§2) 24 hours before the administration, the mice were placed in a cylindrical tank to adapt to the aquatic environment for 10 min. On the day of the behavioral test, the animals were respectively administered intraperitoneally once at 1 h and 24 h before the behavioral test. The mice were placed individually into a cylindrical glass tank with a height of 30 cm and a diameter of 20 cm. The water depth in the tank was 15 cm, so that the animals could not escape from the glass tank and their feet and tails could not touch the bottom of the tank, the water temperature was 23° C.-25° C. A 6 minute video was taken after the mouse entered into water. Since most animals were very active in the first two minutes, the immobility time in the following 4 minute were calculated (criterion of immobility: the mouse stops struggling in the water, stays still and has small limbs movement to maintain balance or to keep a floating state).
(§3) The antidepressant effect of a compound was evaluated by the ability of the compound to reduce the immobility time of the animal in the forced swimming test as compared with the blank group. The shorter the immobility time of the animal to be tested, the higher the inhibition rate and the stronger the antidepressant activity. Inhibition rate1 h(%)=immobility time(blank, 1 h)−immobility time(administration, 1 h)/immobility time(blank, 1 h)×100% Inhibition rate24 h(%)=immobility time(blank, 24 h)−immobility time(administration, 24 h)/immobility time(blank, 24 h)×100%

C57 mice [2] = test: Forced swimming experiment, oral administration to mice; format: in vivo; conditions: inhibition of immobility time, C57 mice; for 1 h inhibition rate: forced swimming 1 h after single oral (intragastric) 20 mg/kg; for 24 h inhibition rate: forced swimming 24 h after single oral (intragastric) 20 mg/kg
Experimental: 1 h and 24 h after a single oral administration of 20 mg/kg, forced swimming experiments were then carried out to investigate the effects of different compounds on depression-like behavior in C57 mice.
as §1, with “male,” for “male, and”
Preparation of the test product: each test compound was accurately weighed and dissolved in 0.9% NaCl solution, mixed thoroughly, and prepared into 1 mg/ml and 2 mg/ml solutions respectively, and set aside.
as §2, with “intragastrically” for “intraperitoneally”
as §3, with “group.” for “group. The shorter the immobility time of the animal to be tested, the higher the inhibition rate and the stronger the antidepressant activity.”, “rate24h(%)=immobility” for “rate24 h(%)=immobility”

hERG potassium channel = target: T1, hERG potassium channel (Homo sapiens, UniProt Q12809); test: hERG potassium channel inhibition experiment (automatic patch clamp, CHO-hERG cells); format: cell-based; conditions: Qpatch, highest tested concentration 40 μM, read-out: IC50, blocking effect on the hERG potassium current
T1 construct: expressed in transfected cells
Experimental: Fully automatic patch clamps were used to test the blocking effect of the compounds of the present invention on the hERG potassium current on a stable cell line transfected with hERG potassium channels.
CHO-hERG cells were cultured in 175 cm^2 culture flask. When the cell grew to 60-80% confluence, the culture medium was removed. The cells were washed with 7 ml PBS (Phosphate Buffered Saline) once, and then 3 ml Detachin was added to digest.
After the digestion was completed, 7 ml culture medium was added to neutralize. The mixture was centrifuged, and after the supernatant was removed, 5 ml culture medium was added to resuspend to ensure the cell density was 2×10^6-5×10^6/ml.
Single-cell high-impedance sealing and whole-cell mode formation were all automatically completed by using the Qpatch instrument. After the recording mode was obtained, the cell was clamped at −80 millivolts. Before +40 millivolt depolarization stimulation for 5 seconds was given, −50 millivolt pre-voltage for 50 millisecond was first given, then repolarized to −50 millivolt for 5 seconds, and then returned to −80 millivolt. This voltage stimulus was applied every 15 seconds. After recording for 2 min, extracellular fluid was given, and recording was conducted for 5 min, and then the dosing process started. The compound concentration started from the lowest test concentration, and each test concentration was given for 2.5 min. […] At least 3 cells per concentration (n≥3) were tested.
20 mM compound mother liquor was diluted with extracellular fluid. 5 μL of 20 mM compound mother liquor was taken and added into 2495 μL extracellular fluid, so that it was diluted 500 times to 40 μM, and was then serially diluted 3 times in an extracellular fluid containing 0.2% DMSO to obtain the final concentration to be tested.
The highest tested concentration was 40 μM, and the concentrations were in order as follows: 40, 13.33, 4.44, 1.48, 0.49, 0.16 μM, totally 6 concentrations.
Experimental data were analyzed by XLFit software.

[3] = In vivo pharmacokinetic experiment in mice; conditions: C57 mice
Experimental: Healthy male C57 mice were randomly divided into groups with 3 mice in each group, and the test compounds were administrated intragastrically or by intravenous injection. See Table 6 below for specific arrangements:
(§4) Each test compound was dissolved in physiological saline to prepare a certain concentration of solution for administration.
(§5) One day before administration, the mice were fasted and allowed to drink freely for 12-14 h. The mice were fed 4 h after administration.
(§6) 0.030 mL of blood was took from each animal each time through the orbit, and anticoagulated with EDTAK2. The collection time points were as follows: in PO group, 5 min, 15 min, 30 min, 1 h, 2 h, 4 h, 6 h, 8 h, 24 h after administration of test substance; in IV group, 2 min, 5 min, 15 min, 30 min, 1 h, 2 h, 4 h, 6 h, 8 h, 24 h after administration of test substance. After blood samples were collected, they were placed on ice and centrifuged to separate the plasma within 30 minutes (centrifugation conditions: 5000 rpm, 10 minutes, 4° C.). The sample were stored at −80° C. before analysis.

[4] = In vivo pharmacokinetic experiment in rats; conditions: SD rats
Experimental: Healthy male SD rats were randomly divided into groups with 3 rats in each group, and the test compounds were administrated intragastrically or by intravenous injection. See Table 8 below for specific arrangements:
as §4
as §6, with “One day before administration, the rats were fasted and allowed to drink freely for 12-14 h. The rats were fed 4 h after administration. 0.030 mL” for “0.030 mL”, “anticoagulated with EDTAK2 anticoagulation. The collection” for “anticoagulated with EDTAK2. The collection”, “group, 5 min, 10 min, 15” for “group, 5 min, 15”

[5] = Distribution in mouse brain tissue; format: in vivo, C57 mice
Experimental: Healthy male C57 mice were randomly divided into groups with 3 mice in each group, and the test compound was administrated intragastrically. See Table 10 below for specific arrangements:
as §4, §5
After the animals were bled, the brain tissue was collected. After washing, 50% ice methanol was added for homogenate at 1:4 (m/v). The collection time points was 10 min, 15 min, 30 min, 1 h, 2 h after administration of the test substance; 30.0 μL of tissue sample was taken (the sample was taken out from the refrigerator at −80° C., vortexed for 30 seconds after natural melting at room temperature) and added into a 1.5 mL centrifuge tube. 300.0 μL internal standard solution (30 ng/mL […] acetonitrile solution) was added, the mixture was vortex for 60 seconds and then centrifuged for 3 minutes (centrifugal force was 12000 rpm); 75 μL of the supernatant was taken and transferred to 96-well injection plate loaded with equal volume of water, shaken and mixed well, and subjected to LC-MS/MS analysis, wherein injection volume was 10 μL.

[6] = 1 h, read-out: 1 h inhibition rate
[7] = 24 h, read-out: 24 h inhibition rate
[8] = male, mouse, iv, 5 mg/kg i.v., plasma
[9] = male, mouse, po, 20 mg/kg p.o., plasma
[10] = male, rat, iv, 10 mg/kg i.v., plasma
[11] = male, rat, po, 10 mg/kg p.o., plasma
[12] = male, rat, po, 100 mg/kg p.o., plasma

T1 sequence (Q12809 whole entry): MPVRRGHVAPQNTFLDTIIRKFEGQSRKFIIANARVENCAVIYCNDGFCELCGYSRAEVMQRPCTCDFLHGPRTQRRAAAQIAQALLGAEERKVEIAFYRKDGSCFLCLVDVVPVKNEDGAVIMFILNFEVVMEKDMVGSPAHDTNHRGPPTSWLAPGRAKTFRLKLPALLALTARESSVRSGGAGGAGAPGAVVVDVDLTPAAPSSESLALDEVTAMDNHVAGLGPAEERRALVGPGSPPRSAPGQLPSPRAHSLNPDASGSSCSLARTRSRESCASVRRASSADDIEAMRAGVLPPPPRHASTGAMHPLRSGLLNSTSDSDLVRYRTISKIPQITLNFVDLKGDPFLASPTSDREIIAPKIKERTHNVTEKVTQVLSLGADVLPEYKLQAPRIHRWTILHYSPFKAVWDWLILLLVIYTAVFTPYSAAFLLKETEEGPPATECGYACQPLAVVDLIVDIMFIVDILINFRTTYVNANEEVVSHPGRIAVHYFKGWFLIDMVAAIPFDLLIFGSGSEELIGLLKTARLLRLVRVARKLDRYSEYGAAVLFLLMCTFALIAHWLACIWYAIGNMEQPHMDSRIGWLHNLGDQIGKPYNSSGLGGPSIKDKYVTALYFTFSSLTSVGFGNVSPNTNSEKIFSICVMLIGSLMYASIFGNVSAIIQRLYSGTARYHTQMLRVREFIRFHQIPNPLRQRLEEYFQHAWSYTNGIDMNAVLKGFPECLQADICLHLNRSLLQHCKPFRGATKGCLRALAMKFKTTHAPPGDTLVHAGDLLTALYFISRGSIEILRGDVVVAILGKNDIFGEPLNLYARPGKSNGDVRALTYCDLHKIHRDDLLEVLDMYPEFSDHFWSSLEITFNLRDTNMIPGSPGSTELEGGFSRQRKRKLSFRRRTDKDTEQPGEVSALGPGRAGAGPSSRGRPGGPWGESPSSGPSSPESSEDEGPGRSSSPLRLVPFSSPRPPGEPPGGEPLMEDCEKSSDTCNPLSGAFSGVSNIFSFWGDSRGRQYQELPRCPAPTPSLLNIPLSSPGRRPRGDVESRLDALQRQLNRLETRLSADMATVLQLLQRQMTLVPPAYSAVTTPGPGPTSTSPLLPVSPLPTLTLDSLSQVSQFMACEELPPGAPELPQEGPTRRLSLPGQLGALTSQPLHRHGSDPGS

In the case of `Cl.NC1(c2cccc(F)c2F)CCCC(O)C1=O` (stereo not shown) [Compound 44, 2-amino-2-(2,3-difluorophenyl)-6-hydroxycyclohexane-1-one hydrochloride], the inhibition in vivo at 10 mg/kg (C57 mice [1]; [6]) is reported as 36.5 ± 2.9%, the inhibition in vivo at 10 mg/kg (C57 mice [1]; [7]) is reported as 53.5 ± 0.2% and the “1 h inhibition rate” value (C57 mice [2]) is reported as 27.3 ± 1.2%. For the same molecule, the “24 h inhibition rate” value (C57 mice [2]) was 22.3 ± 2.3% and the IC50 (hERG potassium channel) was over 40 µM.
Molecule `NC1(c2ccccc2C(F)(F)F)CCCC(O)C1=O` (stereo not shown) [Compound 45, 2-amino-6-hydroxy-2-(2-(trifluoromethyl)phenyl)cyclohexane-1-one hydrochloride] has an inhibition in vivo at 10 mg/kg (C57 mice [1]; [6]) of 33 ± 4.1%, an inhibition in vivo at 10 mg/kg (C57 mice [1]; [7]) of 44.5 ± 2.2% and an IC50 (hERG potassium channel) of over 40 µM.
For `Cl.N[C@@]1(c2ccc(C(F)(F)F)cc2)CCC[C@@H](O)C1=O` [Compound 50, (2R,6R)-2-amino-6-hydroxy-2-(4-(trifluoromethyl)phenyl)cyclohexane-1-one hydrochloride], the “1 h inhibition rate” value (C57 mice [2]) was 34.5 ± 3.1%, the “24 h inhibition rate” value (C57 mice [2]) was 35.6 ± 3.6% and the AUC0-t ([3]; 5 mg/kg i.v., plasma) was 3022 ngh/mL. The “AUC0-∞” value ([3]; 5 mg/kg i.v., plasma) was 3075 ngh/mL, the F ([3]; 20 mg/kg p.o. vs 5 mg/kg i.v.) was 112% and the AUC0-t ([3]; 20 mg/kg p.o., plasma) was 13548 ngh/mL. For the same molecule, the “AUC0-∞” value ([3]; 20 mg/kg p.o., plasma) was 13624 ngh/mL, the MRT [3, 8] was 1.29 h and the half-life [3, 8] was 100 min. For the same molecule, the clearance ([3]; male, mouse, plasma, iv, 5 mg/kg i.v.) was 27.2 mL/min/kg, the Vd ([3]; male, mouse, plasma, iv, 5 mg/kg i.v., read-out: Vss) was 2.1 L/kg and the Cmax [3, 9] was 8100 ng/mL. The MRT [3, 9] was 2.49 h, the Tmax [3, 9] was 6.6 min and the half-life [3, 9] was 250 min. For the same molecule, the AUC0-t ([4]; 10 mg/kg i.v., plasma) was 10976 ngh/mL, the “AUC0-∞” value ([4]; 10 mg/kg i.v., plasma) was 11306 ngh/mL and the F ([4]; 10 mg/kg p.o.) was 82.5%. The AUC0-t ([4]; 10 mg/kg p.o., plasma) was 9060 ngh/mL, the “AUC0-∞” value ([4]; 10 mg/kg p.o., plasma) was 9533 ngh/mL and the F ([4]; 100 mg/kg p.o.) was 77.8%. The AUC0-t ([4]; 100 mg/kg p.o., plasma) was 85478 ngh/mL, the “AUC0-∞” value ([4]; 100 mg/kg p.o., plasma) was 87916 ngh/mL and the MRT [4, 10] was 4.56 h. For the same molecule, the half-life [4, 10] was 290 min, the clearance ([4]; male, rat, plasma, iv, 10 mg/kg i.v.) was 14.8 mL/min/kg and the Vd ([4]; male, rat, plasma, iv, 10 mg/kg i.v., read-out: Vss) was 4.03 L/kg. For the same molecule, the Cmax [4, 11] was 3110 ng/mL, the MRT [4, 11] was 6.29 h and the Tmax [4, 11] was 18.6 min. For the same molecule, the half-life [4, 11] was 344 min, the Cmax [4, 12] was 17300 ng/mL and the MRT [4, 12] was 5.47 h. The Tmax [4, 12] was 40.2 min, the half-life [4, 12] was 292 min and the “AUC0-∞” value ([5]; C57 mouse brain tissue, 20 mg/kg p.o.) was 18509 ng·h/g. The concentration at 10 min ([5]; male, brain, po, C57 mouse, 20 mg/kg p.o. (intragastrically), 10 min) was 19400 ng/g and the half-life ([5]; male, po, C57 mouse brain tissue, 20 mg/kg p.o.) was 86.4 min.
Work on `NC1(c2c(F)cc(F)cc2F)CCCC(O)C1=O` (stereo not shown) [Compound 73, 2-amino-6-hydroxy-2-(2,4,6-trifluorophenyl)cyclohexane-1-one hydrochloride] yielded an inhibition in vivo at 10 mg/kg (C57 mice [1]; [6]) of 38.6 ± 6%, an inhibition in vivo at 10 mg/kg (C57 mice [1]; [7]) of 36.9 ± 3.9% and an IC50 (hERG potassium channel) of over 40 µM.
